This is an account of results in patent publication US7868135B2, “Compositions of lipopeptide antibiotic derivatives and methods of use thereof” (priority 2003, dated 2011).

Starred links: 1 amine or outer side, 2 acyl side, 3 side chain; linkers in the order of their positions; H or OH if unused. Positions of bridges follow the written chain, without caps; N, C: chain ends. Non-standard residues stand in square brackets, D forms with d. Residues, ends and D or L forms follow the SMILES beside them. ξ: configuration not given here. *: point of attachment. X14 = CC(NC(=O)[C@@H](N)CNC(=O)CCN)C(N[*:1])C(=O)[*:2]; X11 = CC(NC(=O)CC1CC2CCC1C2)C(N[*:1])C(=O)[*:2]; X15 = CC(NC(=O)CCNC(N)=O)C(N[*:1])C(=O)[*:2]; ξAbu(βξ-NH2) = CC(N[*:3])C(N[*:1])C(=O)[*:2]; X41 = CC(NC(=O)C1CCCCC1)C(N[*:1])C(=O)[*:2]; X16 = CCC(=O)C(=O)NC(C)C(N[*:1])C(=O)[*:2]; X24 = C/C=C/C(=O)NC(C)C(N[*:1])C(=O)[*:2]; X39 = C=CC(=O)NC(C)C(N[*:1])C(=O)[*:2]; Pentadecanoyl = CCCCCCCCCCCCCCC(=O)*; ξAsp(βξ-Me) = CC(C(=O)O)C(N)C(=O)O; Pip = O=C(O)[CH]1CCCCN1; ξD = NC(CC(=O)O)C(=O)O; ξPip = O=C(O)C1CCCCN1; ξV = CC(C)C(N)C(=O)O; ξP = O=C(O)C1CCCN1

In one experiment the test system is Staphylococcus aureus (MSSA). The following applies: 24 h. The method in brief:
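Broth microdilution MIC per NCCLS M7-A6 with doubling serial dilutions, in cation-adjusted Mueller-Hinton broth supplemented with 0.625 mM calcium.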
For `CCCCCCCCCCCCCCC(=O)NC(CC(=O)O)C(=O)NC1C(=O)N2CCCCC2C(=O)NC(C(C)C(=O)O)C(=O)NC(CC(=O)O)C(=O)NCC(=O)NC(CC(=O)O)C(=O)NCC(=O)NC(C(C)NC(=O)CCNC(=O)[C@@H](N)C(C)C)C(=O)NC(C(C)C)C(=O)N2CCCC2C(=O)NC1C` (stereo partly drawn) [Compound 174, C15-Amphomycin-9-(β-Ala)-Val], the MIC was determined as 2 µg/mL.

Regarding `CCCCCCCCCCCCCCC(=O)NC(CC(=O)O)C(=O)NC1C(=O)N2CCCCC2C(=O)NC(C(C)C(=O)O)C(=O)NC(CC(=O)O)C(=O)NCC(=O)NC(CC(=O)O)C(=O)NCC(=O)NC(C(C)NC(=O)CCCCNC(=O)CCN)C(=O)NC(C(C)C)C(=O)N2CCCC2C(=O)NC1C` (stereo not drawn) [Compound 176, C15-Amphomycin-9-(5-Ava)-(β-Ala)], the MIC was determined as 4 µg/mL.

In the case of `CCCCCCCCCCCCCCC(=O)NC(CC(=O)O)C(=O)NC1C(=O)N2CCCCC2C(=O)NC(C(C)C(=O)O)C(=O)NC(CC(=O)O)C(=O)NCC(=O)NC(CC(=O)O)C(=O)NCC(=O)NC(C(C)NC(=O)CNC(=O)[C@H](CCCCN)NC(=O)CN)C(=O)NC(C(C)C)C(=O)N2CCCC2C(=O)NC1C` (stereo partly drawn) [Compound 190, C15-Amphomycin-9-Gly-Lys-Gly], the MIC is 1 µg/mL.

As to `CCCCCCCCCCCCCCC(=O)NC(CC(=O)O)C(=O)NC1C(=O)N2CCCCC2C(=O)NC(C(C)C(=O)O)C(=O)NC(CC(=O)O)C(=O)NCC(=O)NC(CC(=O)O)C(=O)NCC(=O)NC(C(C)NC(=O)CNC(=O)[C@H](CCCCN)NC(=O)[C@@H](N)CCCCN)C(=O)NC(C(C)C)C(=O)N2CCCC2C(=O)NC1C` (stereo partly drawn) [Compound 191, C15-Amphomycin-9-Gly-Lys-Lys], the MIC stood at 8 µg/mL.

In the case of `CCCCCCCCCCCCCCC(=O)NC(CC(=O)O)C(=O)NC1C(=O)N2CCCCC2C(=O)NC(C(C)C(=O)O)C(=O)NC(CC(=O)O)C(=O)NCC(=O)NC(CC(=O)O)C(=O)NCC(=O)NC(C(C)NC(=O)CNC(=O)CNC(=O)[C@@H](N)CCCCN)C(=O)NC(C(C)C)C(=O)N2CCCC2C(=O)NC1C` (stereo partly drawn) [Compound 192, C15-Amphomycin-9-Gly-Gly-Lys], the MIC was 0.5 to 1 µg/mL.

`CCCCCCCCCCCCCCC(=O)NC(CC(=O)O)C(=O)NC1C(=O)N2CCCCC2C(=O)NC(C(C)C(=O)O)C(=O)NC(CC(=O)O)C(=O)NCC(=O)NC(CC(=O)O)C(=O)NCC(=O)NC(C(C)NC(=O)[C@H](CCCCN)NC(=O)CN)C(=O)NC(C(C)C)C(=O)N2CCCC2C(=O)NC1C` (stereo partly shown) [Compound 193, C15-Amphomycin-9-Lys-Gly]: the MIC was 4 to 8 µg/mL.

As for `CCCCCCCCCCCCCCC(=O)NC(CC(=O)O)C(=O)NC1C(=O)N2CCCCC2C(=O)NC(C(C)C(=O)O)C(=O)NC(CC(=O)O)C(=O)NCC(=O)NC(CC(=O)O)C(=O)NCC(=O)NC(C(C)NC(=O)[C@H](CCCCN)NC(=O)[C@@H](N)CCCCN)C(=O)NC(C(C)C)C(=O)N2CCCC2C(=O)NC1C` (stereo partly shown) [Compound 194, C15-Amphomycin-9-Lys-Lys], the MIC was found to be 2 µg/mL.

On to `CCCCCCCCCCCCCCC(=O)NC(CC(=O)O)C(=O)NC1C(=O)N2CCCCC2C(=O)NC(C(C)C(=O)O)C(=O)NC(CC(=O)O)C(=O)NCC(=O)NC(CC(=O)O)C(=O)NCC(=O)NC(C(C)NC(=O)[C@H](CCCCN)NC(=O)[C@H](CCCCN)NC(=O)[C@@H](N)CCCCN)C(=O)NC(C(C)C)C(=O)N2CCCC2C(=O)NC1C` (stereo partly drawn) [Compound 195, C15-Amphomycin-9-Lys-Lys-Lys], for which the MIC came out at 4 µg/mL.

`CCCCCCCCCCCCCCC(=O)NC(CC(=O)O)C(=O)NC1C(=O)N2CCCCC2C(=O)NC(C(C)C(=O)O)C(=O)NC(CC(=O)O)C(=O)NCC(=O)NC(CC(=O)O)C(=O)NCC(=O)NC(C(C)NC(=O)CNC(=O)CCCCCN)C(=O)NC(C(C)C)C(=O)N2CCCC2C(=O)NC1C` (stereo not shown) [Compound 197, C15-Amphomycin-9-Gly-Ahx]: the minimal inhibitory concentration (MIC) fell in the range of 0.25 to 0.5 µg/mL.

As for `CCCCCCCCCCCCCCC(=O)NC(CC(=O)O)C(=O)NC1C(=O)N2CCCCC2C(=O)NC(C(C)C(=O)O)C(=O)NC(CC(=O)O)C(=O)NCC(=O)NC(CC(=O)O)C(=O)NCC(=O)NC(C(C)NC(=O)CN(C)C(=O)CCCCCN)C(=O)NC(C(C)C)C(=O)N2CCCC2C(=O)NC1C` (stereo not shown) [Compound 198, C15-Amphomycin-9-Sar-Ahx], the MIC was 4 µg/mL.

For `CCCCCCCCCCCCCCC(=O)NC(CC(=O)O)C(=O)NC1C(=O)N2CCCCC2C(=O)NC(C(C)C(=O)O)C(=O)NC(CC(=O)O)C(=O)NCC(=O)NC(CC(=O)O)C(=O)NCC(=O)NC(C(C)NC(=O)[C@@H](N)CNC(=O)CCN)C(=O)NC(C(C)C)C(=O)N2CCCC2C(=O)NC1C` (stereo partly drawn) [Compound 200, C15-Amphomycin-9-Dap-(β-N-(β-Ala))] (Pentadecanoyl-[ξD][ξAbu(βξ-NH2)][ξPip][ξAsp(βξ-Me)][ξD]G[ξD]G[X14][ξV][ξP]; lactam 2-C), the MIC was 1 µg/mL.

As to `CCCCCCCCCCCCCCC(=O)NC(CC(=O)O)C(=O)NC1C(=O)N2CCCCC2C(=O)NC(C(C)C(=O)O)C(=O)NC(CC(=O)O)C(=O)NCC(=O)NC(CC(=O)O)C(=O)NCC(=O)NC(C(C)NC(=O)CCCCC)C(=O)NC(C(C)C)C(=O)N2CCCC2C(=O)NC1C` (stereo not shown) [Compound 201, C15-Amphomycin-9-C6], the MIC worked out at 32 µg/mL.

As for `CCCCCCCCCCCCCCC(=O)NC(CC(=O)O)C(=O)NC1C(=O)N2CCCCC2C(=O)NC(C(C)C(=O)O)C(=O)NC(CC(=O)O)C(=O)NCC(=O)NC(CC(=O)O)C(=O)NCC(=O)NC(C(C)NC(=O)CCCCCCC)C(=O)NC(C(C)C)C(=O)N2CCCC2C(=O)NC1C` (stereo not shown) [Compound 205, C15-Amphomycin-9-C8], the minimum inhibitory concentration (MIC) amounted to 16 µg/mL.

`CCCCCCCCCCCCCCC(=O)NC(CC(=O)O)C(=O)NC1C(=O)N2CCCCC2C(=O)NC(C(C)C(=O)O)C(=O)NC(CC(=O)O)C(=O)NCC(=O)NC(CC(=O)O)C(=O)NCC(=O)NC(C(C)NC(=O)C2CCCCC2)C(=O)NC(C(C)C)C(=O)N2CCCC2C(=O)NC1C` (stereo not drawn) [Compound 206, C15-Amphomycin-9-cHexyl] (Pentadecanoyl-D[ξAbu(βξ-NH2)][Pip][ξAsp(βξ-Me)]DGDG[X41]VP; lactam 2-C; configuration not given here): the MIC stood at 8 µg/mL.

For the molecule `CCCCCCCCCCCCCCC(=O)NC(CC(=O)O)C(=O)NC1C(=O)N2CCCCC2C(=O)NC(C(C)C(=O)O)C(=O)NC(CC(=O)O)C(=O)NCC(=O)NC(CC(=O)O)C(=O)NCC(=O)NC(C(C)NC(=O)CCC)C(=O)NC(C(C)C)C(=O)N2CCCC2C(=O)NC1C` (stereo not shown) [Compound 207, C15-Amphomycin-9-C4], the MIC was found to be 16 µg/mL.

`CCCCCCCCCCCCCCC(=O)NC(CC(=O)O)C(=O)NC1C(=O)N2CCCCC2C(=O)NC(C(C)C(=O)O)C(=O)NC(CC(=O)O)C(=O)NCC(=O)NC(CC(=O)O)C(=O)NCC(=O)NC(C(C)NC(=O)CC2CC3CCC2C3)C(=O)NC(C(C)C)C(=O)N2CCCC2C(=O)NC1C` (stereo not drawn) [Compound 208, C15-Amphomycin-9-(2-Norbornaneacetyl)] (Pentadecanoyl-D[ξAbu(βξ-NH2)][Pip][ξAsp(βξ-Me)]DGDG[X11]VP; lactam 2-C; configuration not given here): the MIC stood at 4 µg/mL.

As for `CCCCCCCCCCCCCCC(=O)NC(CC(=O)O)C(=O)NC1C(=O)N2CCCCC2C(=O)NC(C(C)C(=O)O)C(=O)NC(CC(=O)O)C(=O)NCC(=O)NC(CC(=O)O)C(=O)NCC(=O)NC(C(C)NC(=O)CCNC(N)=O)C(=O)NC(C(C)C)C(=O)N2CCCC2C(=O)NC1C` (stereo not drawn) [Compound 212, C15-Amphomycin-9-(Carbamoyl-β-Ala)] (Pentadecanoyl-D[ξAbu(βξ-NH2)][Pip][ξAsp(βξ-Me)]DGDG[X15]VP; lactam 2-C; configuration not given here), the MIC was found to be 1 µg/mL.

For `C=CC(=O)NC(C)C1NC(=O)CNC(=O)C(CC(=O)O)NC(=O)CNC(=O)C(CC(=O)O)NC(=O)C(C(C)C(=O)O)NC(=O)C2CCCCN2C(=O)C(NC(=O)C(CC(=O)O)NC(=O)CCCCCCCCCCCCCC)C(C)NC(=O)C2CCCN2C(=O)C(C(C)C)NC1=O` (stereo not drawn) [Compound 213, C15-Amphomycin-9-Acryl] (Pentadecanoyl-D[ξAbu(βξ-NH2)][Pip][ξAsp(βξ-Me)]DGDG[X39]VP; lactam 2-C; configuration not given here), the MIC is 2 µg/mL.

With `C/C=C/C(=O)NC(C)C1NC(=O)CNC(=O)C(CC(=O)O)NC(=O)CNC(=O)C(CC(=O)O)NC(=O)C(C(C)C(=O)O)NC(=O)C2CCCCN2C(=O)C(NC(=O)C(CC(=O)O)NC(=O)CCCCCCCCCCCCCC)C(C)NC(=O)C2CCCN2C(=O)C(C(C)C)NC1=O` (stereo not drawn) [Compound 218, C15-Amphomycin-9-Crotonyl] (Pentadecanoyl-D[ξAbu(βξ-NH2)][Pip][ξAsp(βξ-Me)]DGDG[X24]VP; lactam 2-C; configuration not given here), the MIC is 8 µg/mL.

As to `CCCCCCCCCCCCCCC(=O)NC(CC(=O)O)C(=O)NC1C(=O)N2CCCCC2C(=O)NC(C(C)C(=O)O)C(=O)NC(CC(=O)O)C(=O)NCC(=O)NC(CC(=O)O)C(=O)NCC(=O)NC(C(C)NC(=O)CCCCCCCCC)C(=O)NC(C(C)C)C(=O)N2CCCC2C(=O)NC1C` (stereo not shown) [Compound 220, C15-Amphomycin-9-C10], the minimum inhibitory concentration (MIC) came to 2 µg/mL.

For `CCCCCCCCCCCCCCC(=O)NC(CC(=O)O)C(=O)NC1C(=O)N2CCCCC2C(=O)NC(C(C)C(=O)O)C(=O)NC(CC(=O)O)C(=O)NCC(=O)NC(CC(=O)O)C(=O)NCC(=O)NC(C(C)NC(=O)C(=O)CC)C(=O)NC(C(C)C)C(=O)N2CCCC2C(=O)NC1C` (stereo not drawn) [Compound 223, C15-Amphomycin-9-(α-Ketobutyl)] (Pentadecanoyl-D[ξAbu(βξ-NH2)][Pip][ξAsp(βξ-Me)]DGDG[X16]VP; lactam 2-C; configuration not given here), the MIC was 16 µg/mL.

The same experiment, now with this note: S. aureus (MSSA), CAMHB supplemented with 0.625 mM calcium, 24 hours at about 37° C.; a range = compound tested multiple times.
In the case of `CCCCCCCCCCCCCCC(=O)NC(CC(=O)O)C(=O)NC1C(=O)N2CCCCC2C(=O)NC(C(C)C(=O)O)C(=O)NC(CC(=O)O)C(=O)NCC(=O)NC(CC(=O)O)C(=O)NCC(=O)NC(C(C)NC(=O)[C@@H]2CCC(=O)O2)C(=O)NC(C(C)C)C(=O)N2CCCC2C(=O)NC1C` (stereo partly drawn) [Compound 210, C15-Amphomycin-9-((S)-(+)-5-Oxo-2-Tetrahydrofurancarbonyl)], the minimum inhibitory concentration (MIC) worked out at 2 µg/mL.
